The values that follow come from publication PMC12881674, “Activation of TRPV3 channels in bladder cancer cells stimulates ATP release” (Molecular Pharmacology, 2025).

For one assay, the target named is T1, mouse TRPV3 (Mus musculus, UniProt Q8K424).
T1 construct: expressed in transfected cells; host or cells: HEK293
T1 sequence (Q8K424 1-791): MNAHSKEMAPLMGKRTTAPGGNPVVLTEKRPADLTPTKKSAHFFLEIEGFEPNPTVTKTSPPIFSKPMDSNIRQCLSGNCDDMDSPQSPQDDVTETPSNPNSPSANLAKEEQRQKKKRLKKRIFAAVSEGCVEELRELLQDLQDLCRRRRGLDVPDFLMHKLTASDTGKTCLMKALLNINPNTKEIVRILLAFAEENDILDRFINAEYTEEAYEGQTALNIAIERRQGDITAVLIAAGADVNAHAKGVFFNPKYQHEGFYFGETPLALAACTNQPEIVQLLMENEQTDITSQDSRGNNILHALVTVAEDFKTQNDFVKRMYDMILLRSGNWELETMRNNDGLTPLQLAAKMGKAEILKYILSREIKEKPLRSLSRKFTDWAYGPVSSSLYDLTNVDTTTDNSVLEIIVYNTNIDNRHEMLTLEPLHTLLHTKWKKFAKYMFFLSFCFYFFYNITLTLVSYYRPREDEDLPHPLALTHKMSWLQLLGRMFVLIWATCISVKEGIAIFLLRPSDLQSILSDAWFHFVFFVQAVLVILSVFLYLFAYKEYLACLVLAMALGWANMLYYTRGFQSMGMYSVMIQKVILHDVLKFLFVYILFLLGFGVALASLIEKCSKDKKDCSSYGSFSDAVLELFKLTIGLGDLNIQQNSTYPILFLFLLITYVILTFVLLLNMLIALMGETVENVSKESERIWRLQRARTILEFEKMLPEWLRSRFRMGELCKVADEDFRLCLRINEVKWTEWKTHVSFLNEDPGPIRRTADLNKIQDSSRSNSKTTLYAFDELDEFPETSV
Kind of assay: fluo-4 fluorometric Ca2+ assay, concentration-response, HEK cells expressing mouse TRPV3. Type of assay: cell-based. To be noted: HEK cells expressing mouse TRPV3, fluo-4, room temperature, mean ± SD back-transformed from log space, n=5; read-out: EC50 for mouse TRPV3 activation. From the text:
(§1) KU-19-19 (DSMZ no. ACC 395), CAL-29 (DSMZ no. ACC 515), 647-V (DSMZ no. ACC 414), RT-4 (DSMZ no. ACC 412), and RT-112 (DSMZ no. ACC 418) bladder cancer cell lines were obtained from the Leibniz Institute DSMZ (German Collection of Microorganisms and Cell Cultures). Human TRPV3 (NM_145068, purchased from OriGene) and mouse TRPV3 (NM_001371006), rat TRPV1, mouse TRPV2, mouse TRPV4, human TRPM2, human TRPM8, and human TRPA1 were stably transfected in HEK293 cells as described before.[27] […]
(§2) All fluorometric Ca^2+ assays were performed in HBS buffer at room temperature. […] For the primary compound screening and the generation of concentration-response analyses, a robotic liquid handling station (Freedom Evo 150; Tecan) with a built-in custom-made fluorescence plate imager was used. […] Fluorescence was excited using a 470-nm light-emitting diode, and emitted light was imaged through a 515-nm–long pass filter with a cooled Zyla 5.5 camera (Andor). Fluorescence was recorded and processed under the control of the μ-Manager 2.0 gamma software (https://micro-manager.org.[28]). After recording baseline fluorescence, compounds were dispensed into the wells via the liquid handling device. […] For further analysis, fluorescence signals were calculated for each well, corrected for background intensities and normalized to the initial signals. […]

In another assay the target is T2, human TRPM2 (Homo sapiens, UniProt O94759).
T2 construct: expressed in transfected cells; host or cells: HEK293
T2 sequence (O94759 whole entry): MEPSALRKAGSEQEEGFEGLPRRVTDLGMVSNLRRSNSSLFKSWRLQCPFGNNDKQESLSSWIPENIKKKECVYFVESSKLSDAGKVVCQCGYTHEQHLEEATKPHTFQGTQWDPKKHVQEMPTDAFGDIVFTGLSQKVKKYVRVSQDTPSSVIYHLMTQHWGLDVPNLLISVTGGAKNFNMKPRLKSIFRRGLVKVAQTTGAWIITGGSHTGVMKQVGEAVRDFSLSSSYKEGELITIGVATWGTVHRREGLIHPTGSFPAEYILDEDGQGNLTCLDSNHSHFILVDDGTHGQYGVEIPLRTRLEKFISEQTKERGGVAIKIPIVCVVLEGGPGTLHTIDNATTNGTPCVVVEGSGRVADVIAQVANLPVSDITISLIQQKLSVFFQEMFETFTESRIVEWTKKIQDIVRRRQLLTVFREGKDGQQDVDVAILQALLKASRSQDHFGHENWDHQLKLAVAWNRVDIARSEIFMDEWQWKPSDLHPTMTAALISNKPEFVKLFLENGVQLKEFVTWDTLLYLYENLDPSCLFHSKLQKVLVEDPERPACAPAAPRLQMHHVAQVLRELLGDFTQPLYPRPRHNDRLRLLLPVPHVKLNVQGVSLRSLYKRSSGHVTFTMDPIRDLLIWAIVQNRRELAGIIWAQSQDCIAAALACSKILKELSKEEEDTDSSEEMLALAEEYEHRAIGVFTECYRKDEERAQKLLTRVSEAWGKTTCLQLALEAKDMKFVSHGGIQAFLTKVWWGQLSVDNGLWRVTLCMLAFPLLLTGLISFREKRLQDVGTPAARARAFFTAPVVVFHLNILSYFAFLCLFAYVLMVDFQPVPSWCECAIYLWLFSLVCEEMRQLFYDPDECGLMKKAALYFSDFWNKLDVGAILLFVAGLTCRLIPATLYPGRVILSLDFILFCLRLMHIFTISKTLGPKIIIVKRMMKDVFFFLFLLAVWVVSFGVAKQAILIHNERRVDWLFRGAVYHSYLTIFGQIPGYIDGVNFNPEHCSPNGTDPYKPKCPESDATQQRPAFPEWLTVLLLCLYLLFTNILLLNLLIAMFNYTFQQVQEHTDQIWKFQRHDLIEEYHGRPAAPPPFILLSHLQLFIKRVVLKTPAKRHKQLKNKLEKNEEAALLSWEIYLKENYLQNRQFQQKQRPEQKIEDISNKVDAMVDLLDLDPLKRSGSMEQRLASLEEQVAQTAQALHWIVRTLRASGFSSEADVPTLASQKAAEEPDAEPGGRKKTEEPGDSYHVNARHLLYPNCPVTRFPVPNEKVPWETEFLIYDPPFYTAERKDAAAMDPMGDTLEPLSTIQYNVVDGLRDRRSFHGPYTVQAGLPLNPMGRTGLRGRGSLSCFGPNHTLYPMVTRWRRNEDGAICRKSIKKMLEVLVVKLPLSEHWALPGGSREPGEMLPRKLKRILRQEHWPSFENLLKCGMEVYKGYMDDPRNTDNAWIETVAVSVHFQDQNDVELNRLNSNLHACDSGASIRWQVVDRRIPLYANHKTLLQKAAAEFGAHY
The assay is described as follows: fluo-4 Ca2+ assay selectivity, HEK cells expressing human TRPM2. Type of assay: cell-based. To be noted: concentrations up to 50 μM.
Description: as §1, §2

In the case of `COC(=O)C12CN(Cc3ccccc3)CC1(C(=O)OC)CN(Cc1ccccc1)C2` (centres unmarked) [AV3-1], on mouse TRPV3, the EC50 (in general, the concentration that produces a half-maximal response) was found to be 2000 ± 1400 nM. Besides, the “effect on TRPM2” value at human TRPM2 was “no effect”.
